Measured values from US9902716B2, “Fluorinated benzofuranyl-pyrimidine derivatives containing a sulfone group” (Bayer Pharma Aktiengesellschaft, priority 2014, dated 2018).
pIC50: −log10 of the molar value.

Columns and labels:
MOLM-13 cells = test: Proliferation assay MOLM-13 (Method 3, Cell Titre-Glo); assay type: cell-based; settings: Homo sapiens; MOLM-13, 72-hour exposure; read-out: Inhibition of MOLM-13 cell proliferation IC50
Protocol: Non-adherent MOLM-13 human acute myeloid leukemia cells (DSMZ ACC 554) were seeded at a density of 5,000 cells/well in a 96-well multititer plate in 100 μL of growth medium supplemented 10% fetal calf serum. After 24 hours, cell viability of one plate (zero-point plate) was determined with the Cell Titre-Glo Luminescent Cell Viability Assay (Promega), while 50 μL of test compound containing medium was added to the wells of the other plates (final concentrations in the range of 0.001-10 μM and DMSO controls; the final concentration of the solvent dimethyl sulfoxide was 0.5%). Cell viability was assessed after 72-hour exposure with the Cell Titre-Glo Luminescent Cell Viability Assay (Promega). IC50 values (inhibitory concentration at 50% of maximal effect) were determined by means of a 4 parameter fit on measurement data which were normalized to vehicle (DMSO) treated cells (=100%) and measurement readings taken immediately before compound exposure (=0%).

A2780 cells = test: Proliferation assay A2780 (Method 3, crystal violet); assay type: cell-based; settings: Homo sapiens, 96 h; A2780, 4 days incubation; read-out: Inhibition of A2780 cell proliferation IC50
Protocol: Cultivated tumour cells (HeLa, human cervical tumour cells, ATCC CCL-2; NCI-H460, human non-small cell lung carcinoma cells, ATCC HTB-177; A2780, human ovarian carcinoma cells, ECACC #93112519; DU 145, hormone-independent human prostate carcinoma cells, ATCC HTB-81; HeLa-MaTu-ADR, multidrug-resistant human cervical carcinoma cells, EPO-GmbH Berlin; Caco-2, human colorectal carcinoma cells, ATCC HTB-37; B16F10, mouse melanoma cells, ATCC CRL-6475) were plated at a density of 5,000 cells/well (DU145, HeLa-MaTu-ADR), 3,000 cells/well (NCI-H460, HeLa), 2,500 cells/well (A2780), 1,500 cells/well (Caco-2), or 1,000 cells/well (B16F10) in a 96-well multititer plate in 200 μL of their respective growth medium supplemented 10% fetal calf serum. […] Cell proliferation was determined by staining the cells with crystal violet: the cells were fixed by adding 20 μl/measuring point of an 11% glutaric aldehyde solution for 15 minutes at room temperature. […] The extinction was determined by photometry at a wavelength of 595 nm. The change of cell number, in percent, was calculated by normalization of the measured values to the extinction values of the zero-point plate (=0%) and the extinction of the untreated (0 μm) cells (=100%). […]

CDK2/CycE = target: T1, CDK2/CycE (Homo sapiens, UniProt P24941); test: CDK2/CycE kinase assay (Method 2a, TR-FRET); assay type: biochemical; settings: 10 μM ATP
T1 construct: GST; purchased ProQinase GmbH (Freiburg, Germany); host or cells: insect cells (Sf9)
Description: 2a. CDK2/CycE Kinase Assay:
CDK2/CycE-inhibitory activity of compounds of the present invention was quantified employing the CDK2/CycE TR-FRET assay as described in the following paragraphs:
Recombinant fusion proteins of GST and human CDK2 and of GST and human CycE, expressed in insect cells (Sf9) and purified by Glutathion-Sepharose affinity chromatography, were purchased from ProQinase GmbH (Freiburg, Germany). As substrate for the kinase reaction biotinylated peptide biotin-Ttds-YISPLKSPYKISEG (C-terminus in amid form) was used which can be purchased e.g. form the company JERINI Peptide Technologies (Berlin, Germany).
For the assay 50 nl of a 100 fold concentrated solution of the test compound in DMSO was pipetted into a black low volume 384 well microtiter plate (Greiner Bio-One, Frickenhausen, Germany), 2 μl of a solution of CDK2/CycE in aqueous assay buffer [50 mM Tris/HCl pH 8.0, 10 mM MgCl2, 1.0 mM dithiothreitol, 0.1 mM sodium ortho-vanadate, 0.01% (v/v) Nonidet-P40 (Sigma)] were added and the mixture was incubated for 15 min at 22° C. to allow pre-binding of the test compounds to the enzyme before the start of the kinase reaction. Then the kinase reaction was started by the addition of 3 μl of a solution of adenosine-tri-phosphate (ATP, 16.7 μM=> final conc. in the 5 μl assay volume is 10 μM) and substrate (1.25 μM=> final conc. in the 5 μl assay volume is 0.75 μM) in assay buffer and the resulting mixture was incubated for a reaction time of 25 min at 22° C. […]
The resulting mixture was incubated 1 h at 22° C. to allow the formation of complex between the phosphorylated biotinylated peptide and the detection reagents. Subsequently the amount of phosphorylated substrate was evaluated by measurement of the resonance energy transfer from the Euchelate to the streptavidine-XL. Therefore, the fluorescence emissions at 620 nm and 665 nm after excitation at 350 nm was measured in a TR-FRET reader, e.g. a Rubystar (BMG Labtechnologies, Offenburg, Germany) or a Viewlux (Perkin-Elmer). […]

Caco-2 cells = test: Proliferation assay Caco-2 (Method 3, crystal violet); assay type: cell-based; settings: Homo sapiens, 96 h; Caco-2, 4 days incubation; read-out: Inhibition of Caco-2 cell proliferation IC50
Protocol: Cultivated tumour cells (HeLa, human cervical tumour cells, ATCC CCL-2; NCI-H460, human non-small cell lung carcinoma cells, ATCC HTB-177; A2780, human ovarian carcinoma cells, ECACC #93112519; DU 145, hormone-independent human prostate carcinoma cells, ATCC HTB-81; HeLa-MaTu-ADR, multidrug-resistant human cervical carcinoma cells, EPO-GmbH Berlin; Caco-2, human colorectal carcinoma cells, ATCC HTB-37; B16F10, mouse melanoma cells, ATCC CRL-6475) were plated at a density of 5,000 cells/well (DU145, HeLa-MaTu-ADR), 3,000 cells/well (NCI-H460, HeLa), 2,500 cells/well (A2780), 1,500 cells/well (Caco-2), or 1,000 cells/well (B16F10) in a 96-well multititer plate in 200 μL of their respective growth medium supplemented 10% fetal calf serum. After 24 hours, the cells of one plate (zero-point plate) were stained with crystal violet (see below), while the medium of the other plates was replaced by fresh culture medium (200 μl), to which the test substances were added in various concentrations (0 μM, as well as in the range of 0.001-10 μM; the final concentration of the solvent dimethyl sulfoxide was 0.5%). The cells were incubated for 4 days in the presence of test substances. Cell proliferation was determined by staining the cells with crystal violet: the cells were fixed by adding 20 μl/measuring point of an 11% glutaric aldehyde solution for 15 minutes at room temperature. After three washing cycles of the fixed cells with water, the plates were dried at room temperature. The cells were stained by adding 100 μl/measuring point of a 0.1% crystal violet solution (pH 3.0). After three washing cycles of the stained cells with water, the plates were dried at room temperature. The dye was dissolved by adding 100 μl/measuring point of a 10% acetic acid solution. The extinction was determined by photometry at a wavelength of 595 nm. The change of cell number, in percent, was calculated by normalization of the measured values to the extinction values of the zero-point plate (=0%) and the extinction of the untreated (0 μm) cells (=100%). […]

NCI-H460 cells = test: Proliferation assay NCI-H460 (Method 3, crystal violet); assay type: cell-based; settings: Homo sapiens, 96 h; NCI-H460, 4 days incubation; read-out: Inhibition of NCI-H460 cell proliferation IC50
Protocol: Cultivated tumour cells (HeLa, human cervical tumour cells, ATCC CCL-2; NCI-H460, human non-small cell lung carcinoma cells, ATCC HTB-177; A2780, human ovarian carcinoma cells, ECACC #93112519; DU 145, hormone-independent human prostate carcinoma cells, ATCC HTB-81; HeLa-MaTu-ADR, multidrug-resistant human cervical carcinoma cells, EPO-GmbH Berlin; Caco-2, human colorectal carcinoma cells, ATCC HTB-37; B16F10, mouse melanoma cells, ATCC CRL-6475) were plated at a density of 5,000 cells/well (DU145, HeLa-MaTu-ADR), 3,000 cells/well (NCI-H460, HeLa), 2,500 cells/well (A2780), 1,500 cells/well (Caco-2), or 1,000 cells/well (B16F10) in a 96-well multititer plate in 200 μL of their respective growth medium supplemented 10% fetal calf serum. After 24 hours, the cells of one plate (zero-point plate) were stained with crystal violet (see below), while the medium of the other plates was replaced by fresh culture medium (200 μl), to which the test substances were added in various concentrations (0 μM, as well as in the range of 0.001-10 μM; the final concentration of the solvent dimethyl sulfoxide was 0.5%). The cells were incubated for 4 days in the presence of test substances. Cell proliferation was determined by staining the cells with crystal violet: the cells were fixed by adding 20 μl/measuring point of an 11% glutaric aldehyde solution for 15 minutes at room temperature. After three washing cycles of the fixed cells with water, the plates were dried at room temperature. The cells were stained by adding 100 μl/measuring point of a 0.1% crystal violet solution (pH 3.0). After three washing cycles of the stained cells with water, the plates were dried at room temperature. The dye was dissolved by adding 100 μl/measuring point of a 10% acetic acid solution. The extinction was determined by photometry at a wavelength of 595 nm. The change of cell number, in percent, was calculated by normalization of the measured values to the extinction values of the zero-point plate (=0%) and the extinction of the untreated (0 μm) cells (=100%). The IC50 values (inhibitory concentration at 50% of maximal effect) were determined by means of a 4 parameter fit.

SMILES	pIC50 (MOLM-13 cells)	pIC50 (A2780 cells)	pIC50 (CDK2/CycE)	pIC50 (Caco-2 cells)	pIC50 (NCI-H460 cells)
CS(=O)(=O)Cc1cccc(Nc2ncc(F)c(-c3ccc(F)c4ccoc34)n2)c1 [Example 1, 5-Fluoro-4-(4-fluoro-1-benzofuran-7-yl)-N-{3-[(methylsulfonyl)methyl]-phenyl}pyrimidin-2-amine]	6.77	7.05	6.76	6.52	6.48
CCS(=O)(=O)Cc1cccc(Nc2ncc(F)c(-c3ccc(F)c4ccoc34)n2)c1 [Example 2, N-{3-[(Ethylsulfonyl)methyl]phenyl}-5-fluoro-4-(4-fluoro-1-benzofuran-7-yl)pyrimidin-2-amine]	–	–	6.95	–	6.94
CS(=O)(=O)Cc1cc(F)cc(Nc2ncc(F)c(-c3ccc(F)c4ccoc34)n2)c1 [Example 3]	–	–	–	6.41	6.64
Cc1cc(CS(C)(=O)=O)cc(Nc2ncc(F)c(-c3ccc(F)c4ccoc34)n2)c1 [Example 4, 5-Fluoro-4-(4-fluoro-1-benzofuran-7-yl)-N-{3-methyl-5-[(methylsulfonyl)methyl]-phenyl}pyrimidin-2-amine]	7.34	7.42	7.24	6.50	6.84
